Measured values taken from paper PMC9362525 (Diabetologia, 2022).
Like-named read-outs stand apart in the source and are kept apart here.

Tests used:
[1] = format: in vivo, human; conditions: 6-week treatment period
HFD-fed C57BL/6J mice = format: in vivo, mouse; conditions: 8 weeks
[2] = system: participants with type 2 diabetes; format: in vivo, human; conditions: 32 weeks
[3] = system: patients with T2D and established CVD; format: in vivo, human
HHTg-OVX rats = format: in vivo, rat; conditions: 12.5 μg/kg b.wt./day s.c., 12 weeks
db/db mice = format: in vivo, mouse
[4] = system: patients with type 2 diabetes; format: in vivo, human; conditions: Ipr 50 mg or Met 1000 mg, 24 weeks, n=15 per group
human islets = format: cell-based
perifused human islets = format: cell-based
human β-cells = format: cell-based
patients with T2D = format: in vivo, human
HUVECs = format: cell-based, human
HHTg rats = format: in vivo, rat; conditions: 10 mg/kg/day, 8 weeks
patients with T2D and HF = format: in vivo, human
[5] = system: patients with T2D and metabolic syndrome; parameters: species or system human; conditions: in vivo
[6] = format: in vivo, mice; conditions: 40 mg/kg
patients with T2DM = format: in vivo, human
isolated human islets = format: cell-based; conditions: metformin added after 0.5 day, n=7
[7] = system: male C57BL/6 mice on 45% HFD; conditions: mouse, in vivo
EndocBH5 = format: cell-based, human; conditions: 96 well plates
[8] = system: adults with type 2 diabetes; format: in vivo, human
HCAECs = format: cell-based, human
[9] = system: cultured subcutaneous adipocytes; format: cell-based; conditions: preliminary data
[10] = system: thromboxane receptor, primary human myotubes; format: cell-based
[11] = system: isolated mouse skeletal muscle (EDL and soleus); format: cell-based; conditions: [14C]-glucose, n=7-8
mice = format: in vivo, mouse; conditions: acute administration, n=7-8
[12] = system: βV59M diabetic mouse islets; format: cell-based; conditions: diabetic islets + 10μM, 48 hours; n=7-8
cultured human podocytes = format: cell-based
[13] = parameters: species or system human; conditions: in vivo
[14] = system: isolated human adipocytes; format: cell-based; conditions: recombinant protein
LADA individuals [15] = conditions: for GAD65 stimulation index of PBMC proliferation: LADA, median (Q1, Q3)
LADA individuals [16] = conditions: corresponding findings in type 1 diabetes (n=56), ref not given, cited from earlier work
[17] = system: people with type 2 diabetes; format: in vivo, human; conditions: 15 mg, 28 weeks

Molecule: CCOc1ccc(Cc2cc([C@@H]3O[C@H](CO)[C@@H](O)[C@H](O)[C@H]3O)ccc2Cl)cc1 [DAPA, dapagliflozin]
- fractional renal extraction of glucose (T2DM and NGT subjects; NGT): 1.62± 1.4
- renal glucose uptake (T2DM and NGT subjects; NGT): 0.27 ± 0.08 mg/kg.min
- fractional renal extraction of glucose (T2DM and NGT subjects; T2DM): 2.99±1.0
- renal glucose uptake (T2DM and NGT subjects; T2DM): 0.347 ± 0.06 mg/kg.min
- mild hypoglycemia occurrence [1]: once

Molecule: OC[C@H]1O[C@@H](c2ccc(Cl)c(Cc3ccc(O[C@H]4CCOC4)cc3)c2)[C@H](O)[C@@H](O)[C@@H]1O [EMPA, Empagliflozin]
- final body weight (HFD-fed C57BL/6J mice; 10 mg/kg/day oral gavage, HFD): 44.87 ± 1.42 g
- FFA (HFD-fed C57BL/6J mice; 10 mg/kg/day): 746.30 ± 56.59 µmol/L
- UACR (HFD-fed C57BL/6J mice; 10 mg/kg/day): 21.01 ± 1.99 µg/µmol
- fat mass (HFD-fed C57BL/6J mice; 10 mg/kg/day): 11.75 ± 0.78 g
- fat/weight (HFD-fed C57BL/6J mice; 10 mg/kg/day): 26.08 ± 1.09%
- triglyceride (HFD-fed C57BL/6J mice; 10 mg/kg/day): 29.31 ± 2.71 mg/dL
- change in GFR from baseline and compared to placebo [2]: -18 mL/min
- OR (95% CI) for improved risk vs placebo ([3]; all baseline groups): 1.56 (1.30, 1.86)
- OR (95% CI) for worsening risk vs placebo ([3]; all baseline groups): 0.70 (0.62, 0.78)

Molecule: C[C@]12CC[C@@H]3c4ccc(O)cc4CC[C@H]3[C@@H]1CC[C@@H]2O [Estradiol, 17-β estradiol]
- change in ectopic TAG deposition, kidneys (HHTg-OVX rats): -23%
- change in ectopic TAG deposition, liver (HHTg-OVX rats): -16%

Molecule: C[C@H]1N=C(N(C)C)N=C(N)N1 [Imeglimin]
- random blood glucose levels vs vehicle (db/db mice; 150 mg/kg B.I.D. oral, age 6-10 weeks): significantly lower
- loss of RI intensity in the pancreas (SPECT/CT) (db/db mice; at 10 weeks): significantly attenuated

Molecule: OC[C@H]1O[C@@H](c2ccc(F)c(Cc3cc4ccccc4s3)c2)[C@H](O)[C@@H](O)[C@@H]1O [Ipr, ipragliflozin]
- change in visceral fat area [4]: -17.8%

Molecule: CN(C)C(=N)N=C(N)N [Met, Metformin]
- caspase 3/7 activity (human islets; cytokines 48 h plus 2.4 μg/ml): 1.2±0.1
- insulin stimulation index (human islets; cytokines (IL-1β 50 U/ml + IFN-γ 1000 U/ml) 48 h plus 2.4 μg/ml, mean±SEM): 4.7±1.6
- change in visceral fat area [4]: -4.7%

Molecule: NC(=O)N1c2ccccc2C=Cc2ccccc21 [carbamazepine]
- glucose-stimulated insulin secretion (perifused human islets): moderately reduced
- cytokine- and ER stress-induced β-cell death (human β-cells): protected

Molecule: OC[C@H]1O[C@@H](c2ccc(Cl)c(Cc3ccc(O[C@H]4CCOC4)cc3)c2)[C@H](O)[C@@H](O)[C@@H]1O [empagliflozin]
- ∆LVEF Rest, E vs I (patients with T2D; cardiac MRI): -0±2%
- ∆LVEF Rest, treatment vs washout (patients with T2D; cardiac MRI): 2 ±1%
- ∆LVPFR Rest, E vs I (patients with T2D; cardiac MRI): -55 ± 19 mL/s
- ∆LVPFR Rest, treatment vs washout (patients with T2D; cardiac MRI): -38 ± 19 mL/s
- ∆LVEF Stress, E vs I (patients with T2D; chronotropic stress): 1±1%
- ∆LVEF Stress, treatment vs washout (patients with T2D; chronotropic stress): -1±2%
- ∆LVPFR Stress, E vs I (patients with T2D; chronotropic stress): -11 ± 47 mL/s
- ∆LVPFR Stress, treatment vs washout (patients with T2D; chronotropic stress): -4 ± 45 mL/s
- 3-OH butyrate (patients with T2D; fasting, end of 5 weeks): 0.27 ± 0.03 mM
- FFAs (patients with T2D; fasting, end of 5 weeks): 0.60 ± 0.03 mM
- serum insulin (patients with T2D; fasting, end of 5 weeks): 103 ± 14 pM
- expression of inflammatory markers (HUVECs): did not significantly impact
- non-fasting glucose and insulin (HHTg rats): markedly decreased
- serum triglycerides levels (HHTg rats): reduced
- reduction of KIM-1 levels compared to placebo (patients with T2D and HF; 25 mg, week 48, EFFORT-2): 38%
- LVEDD difference from placebo (patients with T2D and HF; week 24, EFFORT-1): -7.88
- LVEDD difference from placebo (patients with T2D and HF; week 48, EFFORT-1): -4.40
- posterior wall diameter difference from placebo (patients with T2D and HF; week 48, EFFORT-2): -2.29
- patients with improvement in KDIGO CKD risk ([3]; high baseline risk group): 27.1%
- patients with worsening KDIGO CKD risk ([3]; high risk baseline group): 23.3%
- patients with worsening KDIGO CKD risk ([3]; low risk baseline group, 10, 25 mg pooled): 26.0%
- patients with improvement in KDIGO CKD risk ([3]; moderate baseline risk group): 24.6%
- patients with worsening KDIGO CKD risk ([3]; moderate risk baseline group): 24.4%
- patients with improvement in KDIGO CKD risk ([3]; very high baseline risk group): 26.2%

Molecule: CC(C)OC(=O)C(C)(C)Oc1ccc(C(=O)c2ccc(Cl)cc2)cc1 [fenofibrate]
- HR for primary outcome, patients with retinopathy at baseline [5]: 0.86

Molecule: Cc1ccc(S(=O)(=O)NC(=O)NN2CC3CCCC3C2)cc1 (stereo not drawn) [gliclazide]
- insulin secretion after the OGTT [6]: increased
- incidence of severe hypoglycaemia (patients with T2DM; female): 0.75 %/year
- incidence of severe hypoglycaemia (patients with T2DM; male): 0.41 %/year

Molecule: CN(C)C(=N)N=C(N)N [metformin]
- reduction of insulin secretion vs 1 day palmitate only (isolated human islets): 18%
- loss of excess body weight vs untreated mice [7]: 30%

Molecule: CC[C@H](C)[C@H](NC(=O)[C@H](CC(C)C)NC(=O)[C@H](Cc1c[nH]c2ccccc12)NC(=O)[C@H](CCC(N)=O)NC(=O)[C@@H](NC(=O)[C@H](Cc1ccccc1)NC(=O)[C@H](C)NC(=O)[C@H](CCCCNC(=O)COCCOCCNC(=O)COCCOCCNC(=O)CC[C@H](NC(=O)CCCCCCCCCCCCCCCCCCC(=O)O)C(=O)O)NC(=O)[C@H](CCC(N)=O)NC(=O)[C@H](C)NC(=O)[C@@H](NC(=O)[C@H](CCCCN)NC(=O)[C@H](CC(=O)O)NC(=O)[C@H](CC(C)C)NC(=O)C(C)(C)NC(=O)[C@@H](NC(=O)[C@H](CO)NC(=O)[C@H](Cc1ccc(O)cc1)NC(=O)[C@H](CC(=O)O)NC(=O)[C@H](CO)NC(=O)[C@@H](NC(=O)[C@H](Cc1ccccc1)NC(=O)[C@@H](NC(=O)CNC(=O)[C@H](CCC(=O)O)NC(=O)C(C)(C)NC(=O)[C@@H](N)Cc1ccc(O)cc1)[C@@H](C)O)[C@@H](C)O)[C@@H](C)CC)[C@@H](C)CC)C(C)C)C(=O)N[C@@H](C)C(=O)NCC(=O)NCC(=O)N1CCC[C@H]1C(=O)N[C@@H](CO)C(=O)N[C@@H](CO)C(=O)NCC(=O)N[C@@H](C)C(=O)N1CCC[C@H]1C(=O)N1CCC[C@H]1C(=O)N1CCC[C@H]1C(=O)N[C@@H](CO)C(N)=O [tirzepatide]
- increased insulin secretion over high glucose (EndocBH5): > 3 fold
- MD in triglycerides vs GLP-1 receptor agonists ([8]; 5 mg once weekly, random effects): -12.51 mg/dL
- MD in triglycerides vs GLP-1 receptor agonists ([8]; 15 mg once weekly): -24.98 mg/dL

Molecule: COc1ccc(C(=O)O[C@H]2CC[C@@]3(C)[C@@H]4CC[C@H]5[C@]6(O)C[C@H](O)[C@@]7(O)[C@@H](CN8C[C@@H](C)CC[C@H]8[C@@]7(C)O)[C@]6(O)C[C@@]53O[C@]24O)cc1OC [veratridine]
- glucose-stimulated insulin secretion (perifused human islets): increased insulin secretion
- cytokine- and ER stress-induced β-cell death (human β-cells): increased cell death

Molecule: CCL5
- endothelial function (HCAECs): displayed endothelial dysfunction

Molecule: Fas ligand [FasL]
- isoproterenol-induced UCP1 protein levels [9]: decreased

Molecule: I-BOP
- increase in glucose incorporation into glycogen ([10]; n=4): +398%
- increase in glucose oxidation ([10]; n=5): +28%
- increase in glucose uptake ([10]; n=5): +53%
- increase in ex-vivo skeletal muscle glucose oxidation [11]: +118%
- change in glucose tolerance AUC (mice): -34%

Molecule: PF-4708671 [S6Ki]
- glucose-stimulated increase in OCR above baseline [12]: 203.94±39.24%
- oligomycin-induced decrease in OCR [12]: 240.32±9.71%

Molecule: TGF-β
- suppression of Tcf21 expression (cultured human podocytes): 58%

Molecule: insulin glargine 300 U/mL [Gla-300]
- Rates of hypoglycaemia at <3.9 to ≥3.0 mmol/L and <3.0 mmol/L [13]: did not differ between groups

Molecule: oncostatin-M
- stimulation of basal lipolysis [14]: +47%

Molecule: rhGAD65
- GAD65 stimulation index of PBMC proliferation (LADA individuals [15]; 2 months from baseline, 3 injections of 4 μg): 2.16 (1.25, 3.06)
- GAD65 stimulation index of PBMC proliferation (LADA individuals [15]; 5 months from baseline): 2.34 (1.81, 3.58)
- postprandial 2 hour C-peptide (LADA individuals [15]; in vivo): 1.45 (1.25, 1.85) nmol/L
- serious adverse events (LADA individuals [15]; interim analysis at 5 months): no treatment-related serious adverse events
- GAD65 stimulation index of PBMC proliferation (LADA individuals [16]; 2 months): 2.77 (1.96, 6.05)
- GAD65 stimulation index of PBMC proliferation (LADA individuals [16]; 5 months): 3.19 (2.02, 6.19)

Molecule: tirzepatide [TZP]
- insulin sensitivity (M-value), first and second phase ISR and beta-cell glucose sensitivity during EGC and HGC [17]: more than SEMA and placebo
